Test results as given in ChEMBL document CHEMBL1201862, “PubChem BioAssay data set” (2004).
The source made the active and inactive calls.

Key:
Format in all cases: functional
[1] = target: Glycogen synthase kinase-3 beta (Homo sapiens, UniProt P49841); experiment: inhibition of human GSK3B activity – biochemical, microfluidics, dry powder samples, set 2, dose response (AID 623989)
[2] = Vero cell cytotoxicity, dose response, cytotoxicity control for M. tuberculosis growth inhibitor project, Vero cells, purified and synthesized compounds, set 5 (AID 504909); details: Mycobacterium tuberculosis
[3] = THP-1 cell cytotoxicity, cytotoxicity control, set 4 (AID 504911); details: Mycobacterium tuberculosis
[4] = THP-1 cell cytotoxicity, dose response, cytotoxicity control, set 3 (AID 504852); details: Mycobacterium tuberculosis
[5] = Vero cell cytotoxicity, dose response, cytotoxicity control for M. tuberculosis growth inhibitor project, Vero cells, purified and synthesized compounds, set 4 (AID 504854); details: Mycobacterium tuberculosis
[6] = target: Melanin-concentrating hormone receptor 1 (Homo sapiens, UniProt Q99705); experiment: Late-stage fluorescence-based counterscreen for antagonists of the G-protein coupled receptor 7 (GPR7): cell-based dose response assay to identify antagonists of the melanin-concentrating hormone receptor 1 (MCHR1) Set 6.
[7] = target: Neuropeptides B/W receptor type 1 (Homo sapiens, UniProt P48145); experiment: human NPBW1 receptor blockade, IC50 – cell-based, fluorescence, dose response, set 6, late-stage follow-up (AID 588583)
Neuropeptides B/W receptor type 1, sequence (P48145 whole entry): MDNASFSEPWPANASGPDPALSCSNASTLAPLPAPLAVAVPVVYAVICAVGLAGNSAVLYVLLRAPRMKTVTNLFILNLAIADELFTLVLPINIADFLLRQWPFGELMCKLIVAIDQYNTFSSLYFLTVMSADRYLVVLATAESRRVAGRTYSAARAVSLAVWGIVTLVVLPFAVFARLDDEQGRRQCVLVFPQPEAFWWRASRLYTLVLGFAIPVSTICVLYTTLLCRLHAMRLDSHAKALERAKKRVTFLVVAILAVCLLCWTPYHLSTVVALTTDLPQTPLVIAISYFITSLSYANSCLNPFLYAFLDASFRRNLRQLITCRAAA

Glycogen synthase kinase-3 beta, sequence (P49841 whole entry): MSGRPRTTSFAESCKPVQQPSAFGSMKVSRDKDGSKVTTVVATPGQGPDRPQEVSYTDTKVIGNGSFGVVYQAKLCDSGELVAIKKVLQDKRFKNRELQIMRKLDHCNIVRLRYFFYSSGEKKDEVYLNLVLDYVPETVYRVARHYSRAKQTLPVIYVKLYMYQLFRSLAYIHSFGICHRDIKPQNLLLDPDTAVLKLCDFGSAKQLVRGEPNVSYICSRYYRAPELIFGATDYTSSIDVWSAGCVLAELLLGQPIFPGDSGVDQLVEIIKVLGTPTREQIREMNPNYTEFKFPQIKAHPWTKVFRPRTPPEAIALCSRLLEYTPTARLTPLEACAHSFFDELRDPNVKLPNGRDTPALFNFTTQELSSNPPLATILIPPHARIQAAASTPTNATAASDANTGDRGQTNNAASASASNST
Melanin-concentrating hormone receptor 1, sequence (Q99705 whole entry): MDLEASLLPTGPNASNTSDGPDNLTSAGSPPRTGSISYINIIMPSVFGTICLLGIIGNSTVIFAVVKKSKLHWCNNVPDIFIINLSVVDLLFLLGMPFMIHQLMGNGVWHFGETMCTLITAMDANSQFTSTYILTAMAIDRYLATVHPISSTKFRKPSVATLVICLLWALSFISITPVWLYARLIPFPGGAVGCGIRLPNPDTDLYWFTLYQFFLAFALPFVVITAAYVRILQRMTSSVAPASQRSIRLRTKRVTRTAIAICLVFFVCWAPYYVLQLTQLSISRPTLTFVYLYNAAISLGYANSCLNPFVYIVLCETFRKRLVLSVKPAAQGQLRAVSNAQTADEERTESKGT

Q: For `COc1ccc(/C=C2\SC(NCc3ccccc3)=NC2=O)cc1`, which AC50 [1] is on record?
A: 6.02 µM (active)

Q: With `COc1cccc(NC(=O)CSc2nc3ccccc3c(=O)[nH]2)c1` as the molecule, how does the CC50 [2] read?
A: > 100 µM (active)

Q: And the CC50 [3]?
A: > 100 µM (active)

Q: What about the CC50 [4] of the same molecule?
A: > 100 µM (active)

Q: What about the CC50 [5] of the same molecule?
A: > 100 µM (active)

Q: For `N#CC(c1cccc(Cl)c1)c1c(Cl)cnn(Cc2cccc3ccccc23)c1=O` (configuration not stated), which IC50 [6] is on record?
A: 0.26 µM (active)

Q: What about the IC50 [7] of the same molecule?
A: 0.26 µM (active)
